Measurements: US9101640B2, “Use of Danshensu, Notoginsenoside R1 or their combination in preparation of medicaments for preventing and treating diseases caused by microcirculation disorder” (Tasly Pharmaceutical Group Co., Ltd., priority 2009, dated 2015)
“Also recorded” adds a separate entry of the source.

Tested on: mesenteric venules
Assay: Diameters of mesenteric venules after I/R
Type: in vivo
Settings: rat mesenteric I/R
Procedure: The rats were anesthetized by intraperitoneal injection of pentobarbital sodium (30 mg/kg body weight (BW)). PE venous cannulas (#3) were cannulated into the right jugular of the rats and detained. The abdomen of each rat was incised in a length of 20-30 mm along the midline. The ileum near the ileocecal junctions was gently taken out and unfolded onto the object stage mounted with glass slides. The unfolded mesenteries were continuously dripped with Krebs-Ringer buffering solution at 37° C. The microcirculatory dynamics of the mesenteries was observed under white light (12V, 100 W) using an inverted biomicroscope (Diaphot TMD-2S, Nikon, Tokyo) placed in the thermostat at 37° C. Observation sites were selected under 20× object lens, and a video recording system with a time-displaying function was used to record what had been observed on S-VHS tape and preserved. […] Normal saline was administrated at 20 min before ischemia until the end of the observation by continuously intravenous drip via jugular at a dosage of 5 mg/kg/h. PE cannulas were used to ligate non-circulatory mesenteric arteries and veins, so as to observe the arteries and veins for 10 min, and then the ligation was lifted. Time was adjusted to zero and the microcirculatory dynamics under the same visual field was continuously observed for 60 min. DLA was administrated at 20 min before ischemia until the end of the observation by continuously intravenous drip via jugular at a dosage of 5 mg/kg/h. R1 was administrated at 20 min before ischemia until the end of the observation by continuously intravenous drip via jugular at a dosage of 5 mg/kg/h. The combination of DLA and R1 in a weight ratio of 4:1 was administrated at 20 min before ischemia until the end of the observation by continuously intravenous drip via jugular at a dosage of 5 mg/kg/h. The combination of DLA and R1 in a weight ratio of 1:1 was administrated at 20 min before ischemia until the end of the observation by continuously intravenous drip via jugular at a dosage of 5 mg/kg/h. […] Wherein, 6 rats in each group were taken out, these rats were used for observing the following aspects: the venular diameters; leukocytes rolling, adhesion, and emigration and DHR fluorescence intensities of the venular walls. […] Microcirculatory dynamics was continuously recorded using an inverted biomicroscope […] recording system (CC-090, Flovel, Tokyo) and SIT fluorescent camera (C-2400-08, Hamamatsu Photonics, Hamamatsu). 3 sites of the mesenteric venules were measured using Image-Pro Plus 5.0 software from the replayed CD records at the following time points: before ischemia and 1 min, 10 min, 20 min, 30 min, 40 min, 50 min and 60 min after the beginning of the reperfusion. The average diameters were calculated.

## O=C(O)C(O)Cc1ccc(O)c(O)c1 (stereo not shown) [DLA, 3,4-dihydroxyphenyl lactic acid]
post-administration, 5 mg/kg/h continuous i.v. drip from 20 min after ischemia (DLA: 10 min after I/R)
  effect on the diameters of the mesenteric venules after reperfusion: did not cause the significant changes
pre-administration, 5 mg/kg/h continuous i.v. drip from 20 min before ischemia, 60 min reperfusion
  effect on the diameters of the mesenteric venules after reperfusion: did not cause the significant changes

## CC(C)=CCC[C@](C)(O[C@@H]1O[C@H](CO)[C@@H](O)[C@H](O)[C@H]1O)[C@H]1CC[C@]2(C)[C@@H]1[C@H](O)C[C@@H]1[C@@]3(C)CC[C@H](O)C(C)(C)[C@@H]3[C@@H](O[C@@H]3O[C@H](CO)[C@@H](O)[C@H](O)[C@H]3O[C@@H]3OC[C@@H](O)[C@H](O)[C@H]3O)C[C@]12C [R1, Notoginsenoside R1]
post-administration, 5 mg/kg/h continuous i.v. drip from 20 min after ischemia (DLA: 10 min after I/R), 5 mg/kg
  effect on the diameters of the mesenteric venules after reperfusion: did not cause the significant changes; also recorded: have no significant inhibitory effects
pre-administration, 5 mg/kg/h continuous i.v. drip from 20 min before ischemia, 60 min reperfusion, 5 mg/kg
  effect on the diameters of the mesenteric venules after reperfusion: did not cause the significant changes; also recorded: have no significant inhibitory effects
